Measurements published in PMC10253456, “Investigating the Contribution of Major Drug-Metabolising Enzymes to Possum-Specific Fertility Control” (International Journal of Molecular Sciences, 2023).
Where two headings read alike, the source gives them in different places.

Key:
[1] = tested on: UGT isoforms of the UGT1 and UGT2B families; parameters: method as in PMID 25008344; details: pooled human liver and intestinal microsomes; read-out: concentration reducing glucuronidation of 4-methylumbelliferone by ~50% of the control; cited from earlier work
[2] = tested on: UGT2B4, UGT2B7, UGT2B15, and UGT2B17; details: cited from earlier work
[3] = tested on: mice; details: EE2 5 µg/kg/day; cited from earlier work
[4] = tested on: fathead minnows (Pimephales promelas); parameters: method as in PMID 17517636; details: EE2 5–6 ng/L; cited from earlier work
[5] = tested on: UGT2B; test: p-nitrophenol glucuronidation activity in mouse liver microsomes
[6] = tested on: UGT2B; test: p-nitrophenol glucuronidation activity in pooled human liver microsomes
[7] = tested on: CYP3A; test: CYP3A catalytic activity (erythromycin N-demethylation) in mouse liver microsomes; details: for Percent control catalytic activity at estimated IC50 / Percent control catalytic activity at estimated 2-fold IC50: mouse liver microsomes, initial screen n=1; for Percent control catalytic activity at estimated IC50: compounds without reported IC50 at 1 µM; for Percent control catalytic activity at estimated 2-fold IC50: compounds without reported IC50 at 5 µM; for CYP3A catalytic activity, % of the control: at both estimated IC50 and 2-fold IC50 values (ketoconazole 2.5 and 5 µM)
[8] = tested on: UGT2B (heading: UGT2B4); test: in vitro; details: avian (mallards and a swan), pH 7.4
[9] = tested on: UGT2B (heading: UGT2B4); test: p-nitrophenol glucuronidation activity in possum liver microsomes; type: biochemical, possum (Trichosurus vulpecula); details: possum (Trichosurus vulpecula)
[10] = tested on: UGT2B; test: as above; type: biochemical, possum (Trichosurus vulpecula); details: for % of control (UGT2B4 catalytic activity at 2-fold IC50) / UGT2B4 catalytic activity at 2-fold IC50: compound at estimated 2-fold IC50; for p-nitrophenol glucuronidation (UGT2B) activity, % of the control: at estimated IC50 and 2-fold IC50 values
[11] = tested on: UGT2B (heading: UGT2B4); test: in vitro; details: BALB/c, mouse, pH 7.4
[12] = tested on: UGT2B; details: avian; for % of control (UGT2B4 catalytic activity at 2-fold IC50) / UGT2B4 catalytic activity at 2-fold IC50: compound at estimated 2-fold IC50
[13] = tested on: UGT2B (heading: UGT2B4); test: in vitro; details: human, pH 7.4
[14] = tested on: CYP3A; test: CYP3A catalytic activity (erythromycin N-demethylation) in possum liver microsomes; details: for Percent control catalytic activity at estimated IC50 / Percent control catalytic activity at estimated 2-fold IC50: possum liver microsomes, initial screen n=1; for Percent control catalytic activity at estimated IC50: compounds without reported IC50 at 1 µM; for Percent control catalytic activity at estimated 2-fold IC50: compounds without reported IC50 at 5 µM
[15] = tested on: CYP3A; details: avian
[16] = tested on: CYP3A; test: CYP3A catalytic activity (erythromycin N-demethylation) in pooled human liver microsomes; details: for CYP3A catalytic activity, % of the control: at both estimated IC50 and 2-fold IC50 values (ketoconazole 2.5 and 5 µM)
[17] = tested on: testosterone metabolism; parameters: method as in PMID 19336903; details: pooled human liver microsomes; cited from earlier work
[18] = tested on: CYP3A; test: CYP3A catalytic activity with midazolam and triazolam as substrates; details: erythromycin vs midazolam and triazolam
[19] = tested on: erythromycin N-demethylation; parameters: method as in PMID 15342469; details: pooled human liver microsomes; read-out: concentration reducing erythromycin N-demethylation by ~50% of the control; cited from earlier work
[20] = tested on: cineole metabolism in wild possum liver microsomes; parameters: method as in PMID 12593759; details: 5 µM ketoconazole; cited from earlier work
[21] = mouse, compound at estimated 2-fold IC50
[22] = pooled human liver microsomes, compound at estimated 2-fold IC50
[23] = liver microsomes, pH 7.4, probe p-nitrophenol (0.5 mM final, from 50 µL of 5 mM in 500 µL), compound at estimated IC50, read-out: % of control (UGT2B4 catalytic activity at IC50)
[24] = mouse, compound at estimated 2-fold IC50 (5 µM where none reported)
[25] = pH 7.4, compound at estimated IC50, read-out: % of control (UGT2B4 catalytic activity at IC50)
[26] = compound at estimated 2-fold IC50 (5 µM where none reported)
[27] = possum, compound at estimated 2-fold IC50 (5 µM where none reported)

In the case of `COc1cc([C@@H]2Oc3cc([C@H]4Oc5cc(O)cc(O)c5C(=O)[C@@H]4O)ccc3O[C@H]2CO)ccc1O` [silybin B], the IC50 [1] is given as 87 µM.

In the case of `CC(C)(c1ccc(O)cc1)c1ccc(O)cc1` [bisphenol A], the type of inhibition ([2]; UGT2B4) is listed as “competitive” and the type of inhibition ([2]; UGT2B7, UGT2B15, and UGT2B17) is listed as “non-competitive”.

In the case of `C#C[C@]1(O)CC[C@H]2[C@@H]3CCc4cc(O)ccc4[C@H]3CC[C@@]21C` [EE2, ethinylestradiol], the “effect of developmental exposure on behaviour” value [3] is listed as “behavioural masculinisation” and the “effect of exposure on fish” value [4] is listed as “feminisation of male fathead minnows”.

For `CC(=O)O[C@H](CC=C(C)C)C1=CC(=O)c2c(O)ccc(O)c2C1=O` [Acetylshikonin], the “% of control (UGT2B4 catalytic activity at 2-fold IC50)” value [5, 21] was 94 % of control, the “UGT2B4 catalytic activity at 2-fold IC50” value [5, 21] was 2.92 ± 0.22 µmol/mg/min and the “% of control (UGT2B4 catalytic activity at 2-fold IC50)” value [6, 22] was 100 % of control. For the same molecule, the “UGT2B4 catalytic activity at 2-fold IC50” value [6, 22] was 3.70 µmol/mg/min, the “Percent control catalytic activity at estimated IC50” value [7] was 100 percent control and the “Percent control catalytic activity at estimated 2-fold IC50” value [7] was 93 percent control. The activity at 30 min [8] was 87%, the activity at 30 min [9, 23] was 96% and the “% of control (UGT2B4 catalytic activity at 2-fold IC50)” value [10] was 101 % of control. For the same molecule, the “UGT2B4 catalytic activity at 2-fold IC50” value [10] was 3.70 ± 0.18 µmol/mg/min, the activity [11] was 93% and the “% of control (UGT2B4 catalytic activity at 2-fold IC50)” value [12] was 84 % of control. The “UGT2B4 catalytic activity at 2-fold IC50” value [12] was 0.53 ± 0.08 µmol/mg/min, the activity [13] was 98% and the “Percent control catalytic activity at estimated IC50” value [14] was 128 percent control. For the same molecule, the “Percent control catalytic activity at estimated 2-fold IC50” value [14] was 112 percent control.

With `O=c1cc(-c2ccccc2)oc2cc(O)ccc12` [7-Hydroxyflavone] the “% of control (UGT2B4 catalytic activity at 2-fold IC50)” value [5, 21] was 101 % of control, the “UGT2B4 catalytic activity at 2-fold IC50” value [5, 21] was 2.55 ± 0.18 µmol/mg/min and the “Percent control catalytic activity at estimated IC50” value [7] was 97 percent control. For the same molecule, the “Percent control catalytic activity at estimated 2-fold IC50” value [7] was 97 percent control, the “CYP3A catalytic activity, % of the control” value (“CYP3A catalytic activity, %” for short) ([7]; mouse) was > 83 % of the control and the “% of control (catalytic activity at 2-fold IC50)” value [7, 24] was 90 % of control. The “Catalytic activity at 2-fold IC50” value [7, 24] was 0.40 ± 0.04 nmol/mg/min, the activity at 30 min [8] was 150% and the activity at 30 min [9, 25] was 100%. The “% of control (UGT2B4 catalytic activity at 2-fold IC50)” value [10] was 101 % of control, the “UGT2B4 catalytic activity at 2-fold IC50” value [10] was 3.92 ± 0.02 µmol/mg/min and the “CYP3A catalytic activity, %” value ([15]; at both estimated IC50 and 2-fold IC50 values (or 1 and 5 µM)) was > 83 % of the control. For the same molecule, the “% of control (catalytic activity at 2-fold IC50)” value [15, 26] was 103 % of control, the “Catalytic activity at 2-fold IC50” value [15, 26] was 0.42 ± 0.07 nmol/mg/min and the activity [11] was 100%. For the same molecule, the “CYP3A catalytic activity, %” value [16] was > 83 % of the control, the “% of control (catalytic activity at 2-fold IC50)” value [16, 26] was 95 % of control and the “Catalytic activity at 2-fold IC50” value [16, 26] was 0.61 nmol/mg/min. The “% of control (UGT2B4 catalytic activity at 2-fold IC50)” value [12] was 92 % of control, the “UGT2B4 catalytic activity at 2-fold IC50” value [12] was 0.38 ± 0.12 µmol/mg/min and the IC50 [17] was over 100 µM. The “Percent control catalytic activity at estimated IC50” value [14] was 81 percent control, the “Percent control catalytic activity at estimated 2-fold IC50” value [14] was 78 percent control and the “CYP3A catalytic activity, %” value ([14]; possum, at both estimated IC50 and 2-fold IC50 values (or 1 and 5 µM)) was > 83 % of the control. For the same molecule, the “% of control (catalytic activity at 2-fold IC50)” value [14, 27] was 95 % of control, the “Catalytic activity at 2-fold IC50” value [14, 27] was 0.38 ± 0.08 nmol/mg/min and the “reduced catalytic activity of possum CYP3A, % of the control” value ([14]; possum, mainly at 5 µM or an estimated 2-fold IC50, not significantly different) was ~ 35 % of the control.

In the case of `O=c1cc(-c2ccccc2)oc2cc(O)c(O)c(O)c12` [Baicalein], the “% of control (UGT2B4 catalytic activity at 2-fold IC50)” value [5] is reported as 95, the “UGT2B4 catalytic activity at 2-fold IC50” value [5] is reported as 3.08±0.04 and the “UGT2B4 catalytic activity at 2-fold IC50” value [6] is reported as 3.95. For the same molecule, the “Percent control catalytic activity at estimated IC50” value [7] was 114 percent control, the “Percent control catalytic activity at estimated 2-fold IC50” value [7] was 99 percent control and the activity at 30 min [8] was 56%. The activity at 30 min [9, 25] was 105%, the “% of control (UGT2B4 catalytic activity at 2-fold IC50)” value [10] was 106 % of control and the “UGT2B4 catalytic activity at 2-fold IC50” value [10] was 3.91 ± 0.20 µmol/mg/min. For the same molecule, the activity [11] was 96%, the “% of control (UGT2B4 catalytic activity at 2-fold IC50)” value [12] was 44 % of control and the “UGT2B4 catalytic activity at 2-fold IC50” value [12] was 0.17 ± 0.06 µmol/mg/min. The activity [13] was 97%, the “Percent control catalytic activity at estimated IC50” value [14] was 102 percent control and the “Percent control catalytic activity at estimated 2-fold IC50” value [14] was 112 percent control.

In the case of `CC(C)=CCC[C@](C)(O[C@@H]1O[C@H](CO)[C@@H](O)[C@H](O)[C@H]1O)[C@H]1CC[C@]2(C)[C@@H]1[C@H](O)C[C@@H]1[C@@]3(C)CC[C@H](O)C(C)(C)[C@@H]3[C@@H](O)C[C@]12C` [Ginsenoside F1], the “% of control (UGT2B4 catalytic activity at 2-fold IC50)” value [5, 21] is reported as 157 % of control, the “UGT2B4 catalytic activity at 2-fold IC50” value [5, 21] is reported as 4.36 ± 0.01 µmol/mg/min and the “% of control (UGT2B4 catalytic activity at 2-fold IC50)” value [6, 22] is reported as 100 % of control. The “UGT2B4 catalytic activity at 2-fold IC50” value [6, 22] was 4.01 µmol/mg/min, the “Percent control catalytic activity at estimated IC50” value [7] was 82 percent control and the activity at 30 min [8] was 110%. The activity at 30 min [9, 23] was 100%, the “% of control (UGT2B4 catalytic activity at 2-fold IC50)” value [10] was 109 % of control and the “UGT2B4 catalytic activity at 2-fold IC50” value [10] was 4.14 ± 0.18 µmol/mg/min. For the same molecule, the activity [11] was 132%, the “% of control (UGT2B4 catalytic activity at 2-fold IC50)” value [12] was 99 % of control and the “UGT2B4 catalytic activity at 2-fold IC50” value [12] was 0.66 ± 0.14 µmol/mg/min. The activity [13] was 101% and the “Percent control catalytic activity at estimated IC50” value [14] was 120 percent control.

For `COc1cc([C@@H]2Oc3ccc([C@H]4Oc5cc(O)cc(O)c5C(=O)[C@@H]4O)cc3O[C@H]2CO)ccc1O` [isosilybin B], the IC50 [1] is listed as 187 µM.

For `CC(=O)N1CCN(c2ccc(OCC3COC(Cn4ccnc4)(c4ccc(Cl)cc4Cl)O3)cc2)CC1` (stereo not shown) [Ketoconazole], the “p-nitrophenol glucuronidation (UGT2B) activity, % of the control” value [5] was “did not significantly reduce UGT2B activity to less than 50% of the control”, the “p-nitrophenol glucuronidation (UGT2B) activity, % of the control” value [6] was “did not significantly reduce UGT2B activity to less than 50% of the control” and the “Percent control catalytic activity at estimated IC50” value [7] was 78 percent control. The “CYP3A catalytic activity, %” value ([7]; mouse) was < 50 % of the control, the “p-nitrophenol glucuronidation (UGT2B) activity, % of the control” value [10] was “did not significantly reduce UGT2B activity to less than 50% of the control” and the “p-nitrophenol glucuronidation (UGT2B) activity, % of the control” value ([10]; listed as ketoconazole) was > 65 % of the control. The “change in the inhibition of the CYP3A enzyme due to substrate choice (present study vs reported study)” value [18] was over 100 fold, the “CYP3A catalytic activity, %” value [16] was 80 % of the control and the “p-nitrophenol glucuronidation (UGT2B) activity, % of the control” value ([12]; at estimated IC50 and 2-fold IC50 values) was “did not significantly reduce UGT2B activity to less than 50% of the control”. For the same molecule, the IC50 [19] was 0.07 µM, the “formation of all hydroxycineole metabolites (9-, 3-, 7-hydroxycineole), % of the control” value [20] was “approximately 25 % of the control” and the “Percent control catalytic activity at estimated IC50” value [14] was 76 percent control. For the same molecule, the “reduction of catalytic activity of possum CYP3A compared to the control” value ([14]; possum, ketoconazole 5 µM, not statistically significant) was “approximately 27%”.
